According to patent US20050209278A1, “Piperidinyl- and piperazinyl-sulfonylmethyl hydroxamic acids and their use as protease inhibitors” (priority 2002, published 2005):

Target: T1, MMP-13 (Homo sapiens, UniProt P45452)
T1 construct: made in house; host or cells: baculovirus / insect cells
Experiment: In vitro MMP inhibition, Ki determination (fluorogenic substrate II)
Type: biochemical
Conditions: value outside parentheses; read-out: MMP-13 Ki
Procedure, shortened: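 Room-temperature, 1 h incubation of APMA-activated recombinant human MMP-13 with 4 μM quenched substrate II (cleaved at Gly-Leu) in pH 7.5 Tris/NaCl/CaCl2 buffer. Inhibition appears as a slowed rise in 330/420 nm fluorescence. Single low enzyme and substrate levels were used for Ki.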

Ki [nM]	Structure (SMILES)
0.651	CCCCCc1ccc(-c2cnc(N3CCN(S(=O)(=O)C4(C(=O)NO)CCOCC4)CC3)s2)cc1 [Example 380]
0.89	O=C(NO)C1(S(=O)(=O)N2CCC(c3ccc(-c4ccc(C(F)(F)F)cc4)cn3)CC2)CCOCC1 [Example 395]
15.1	CCCCc1ccc(C2CCN(S(=O)(=O)C3(C(=O)NO)CCNCC3)CC2)nc1 [Example 388]
0.378	O=C(NO)C1(S(=O)(=O)N2CCC(c3ccc(OCC(F)(F)C(F)F)cc3)CC2)CCN(CCN2CCOCC2)CC1 [Example 385]
0.647	O=C(NO)C1(S(=O)(=O)N2CCN(c3ncc(-c4cccnc4)s3)CC2)CCOCC1 [Example 382]
1.35	O=C(NO)C1(S(=O)(=O)N2CCN(c3ncc(-c4ccc(Cl)c(Cl)c4)s3)CC2)CCOCC1 [Example 369]
1.35	COc1ccc(-c2cnc(N3CCN(S(=O)(=O)C4(C(=O)NO)CCOCC4)CC3)s2)cc1OC [Example 371]
101	O=C(NO)C1(S(=O)(=O)N2CCN(c3ncc(-c4cccc(-c5ccccc5)c4)s3)CC2)CCOCC1 [Example 365]
0.329	O=C(NO)C1(S(=O)(=O)N2CCN(c3ncc(-c4ccc(O)cc4)s3)CC2)CCOCC1 [Example 368]
104	NC(=O)c1ccccc1-c1cnc(N2CCN(S(=O)(=O)C3(C(=O)NO)CCOCC3)CC2)s1 [Example 383]
3.37	O=C(NO)C1(S(=O)(=O)N2CCC(COCc3ccccc3)CC2)CCOCC1 [Example 373]

Continued, compound first:

Structure (SMILES)	Ki [nM]
CC(C)(C)c1ccc(-c2cnc(N3CCN(S(=O)(=O)C4(C(=O)NO)CCOCC4)CC3)s2)cc1 [Example 347]	1.48
O=C(NO)C1(S(=O)(=O)N2CCN(c3ccc(OCC(F)(F)C(F)F)cc3)CC2)CCOCC1 [Example 336]	0.522
O=C(NO)C1(S(=O)(=O)N2CCN(c3ccc(CCC(F)(F)C(F)(F)F)cc3)CC2)CCN(C2CC2)CC1 [Example 335]	0.489
O=C(NO)C1(S(=O)(=O)N2CCN(c3ccc(-c4ccc(Cl)c(Cl)c4)cc3)CC2)CCOCC1 [Example 328]	0.71
O=C(NO)C1(S(=O)(=O)N2CCN(c3cnn(-c4ccccc4)c(=O)c3Cl)CC2)CCOCC1 [Example 329]	> 10000
O=C(NO)C1(S(=O)(=O)N2CCC(c3ccc(CCCC(F)(F)F)cn3)CC2)CCOCC1 [Example 338]	0.302
CCCCOc1ccc(N2CCN(S(=O)(=O)C3(C(=O)NO)CCN(CCOC)CC3)CC2)nc1 [Example 325]	0.09
COCCN1CCC(C(=O)NO)(S(=O)(=O)N2CCN(c3ncccn3)CC2)CC1 [Example 332]	28.2
O=C(NO)C1(S(=O)(=O)N2CCC(c3ccc(CCC(F)(F)C(F)(F)F)cn3)CC2)CCOCC1 [Example 340]	0.107
O=C(NO)C1(S(=O)(=O)N2CCN(c3ccc(-c4ccc(F)cc4F)cn3)CC2)CCOCC1 [Example 316]	0.77
O=C(NO)C1(S(=O)(=O)N2CCN(c3ccc(Br)cn3)CC2)CCOCC1 [Example 331]	0.193
O=C(NO)C1(S(=O)(=O)N2CCN(c3cnn(-c4ccccc4)c(=O)c3)CC2)CCOCC1 [Example 322]	> 10000
O=C(NO)C1(S(=O)(=O)N2CCN(c3ccc(CCCC(F)(F)F)cn3)CC2)CCOCC1 [Example 358]	0.15
Cc1ccc(-c2cnc(N3CCN(S(=O)(=O)C4(C(=O)NO)CCOCC4)CC3)s2)cc1 [Example 344]	0.267
O=C(NO)C1(S(=O)(=O)N2CCN(c3ncc(-c4ccc5c(c4)OCO5)s3)CC2)CCOCC1 [Example 362]	0.408
O=C(NO)C1(S(=O)(=O)N2CCC(c3ccc(OCC(F)(F)C(F)(F)F)cc3)CC2)CCOCC1 [Example 330]	0.92
COC(=O)c1ccc(N2CCN(S(=O)(=O)C3(C(=O)NO)CCOCC3)CC2)cc1 [Example 324]	3.55
O=C(NO)C1(S(=O)(=O)N2CCN(c3ncc(-c4ccc(Cl)cc4)s3)CC2)CCOCC1 [Example 343]	0.167
O=C(NO)C1(S(=O)(=O)N2CCN(c3ccc(OCC(F)(F)C(F)F)cc3)CC2)CCOCC1 [Example 326]	0.31
